Read-outs that look alike come from different tables or passages of the source. A value given as a limit tells only on which side of the number the result lay.

In one test the test system is HBV. Nature of the test: HBV Infection in HepG2-NTCP Cells (HBeAg AlphaLISA). The format is cell-based. The note with it: Hepatitis B virus, 192 h. As for the experimental part:
HepG2-NTCP A3 cells were maintained in DMEM media supplemented with GlutaMAX™, 10% fetal bovine serum, 1% penicillin/streptomycin, and 5 μg/mL puromycin at 37° C. in a humidified atmosphere with 5% CO2 in a collagen-coated tissue culture flask.
HepG2-NTCP cells were seeded in 384 well plate containing 16,000 cells/well two days prior to the infection. On the day of infection, compounds were 3-fold serially diluted in DMSO and pre-incubated with HepG2-NTCP cells for two hours before purified HBV addition. HBV infection was carried out at 2000 GE/cell with 4% PEG, and the final concentration of DMSO is 0.5%. On day one post infection, HBV-containing media was aspirated, cells were washed once with PBS and then maintained in 2.5% DMSO containing media for the remainder of the assay.
Supernatants from infected HepG2-NTCP cells were collected at day 8 post infection, and the amount of viral antigen HBeAg was measured by HBeAg AlphaLISA detection kit (PerkinElmer) following the manufacturer's recommended protocol. Irrespective of readout, compound concentrations that reduce viral product accumulation in supernatants by 50% relative to DMSO controls (EC50) are reported. EC50 ranges are as follows: A<0.1 μM; B 0.1-1 μM; C>1 μM. A dash (-) indicates the compound was not tested.

For a further test, the target named is T1, NTCP (Homo sapiens, UniProt Q14973).
T1 construct: expressed in transfected cells; host or cells: HepG2-NTCP (A3 clone, kept under puromycin)
T1 sequence (Q14973 1-349): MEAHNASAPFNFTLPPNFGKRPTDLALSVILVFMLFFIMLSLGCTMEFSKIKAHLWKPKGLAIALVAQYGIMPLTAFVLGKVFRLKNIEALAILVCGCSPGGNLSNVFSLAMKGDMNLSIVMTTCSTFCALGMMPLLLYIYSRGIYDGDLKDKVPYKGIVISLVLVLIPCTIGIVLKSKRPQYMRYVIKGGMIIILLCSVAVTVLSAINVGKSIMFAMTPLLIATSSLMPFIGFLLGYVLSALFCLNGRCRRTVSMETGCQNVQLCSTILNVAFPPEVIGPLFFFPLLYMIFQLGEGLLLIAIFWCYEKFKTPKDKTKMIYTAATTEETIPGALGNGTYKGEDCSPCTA
Nature of the test: HepG2-NTCP preS1 Binding Competition Assay. The settings on record: HepG2-NTCP cells pre-treated 2 hours, FITC-labeled myristoylated preS1 peptide co-incubated 30 minutes, cell-surface fluorescence; read-out: Cellular EC50. The protocol:
Myristoylated preS1 peptide (2-48 aa) conjugated to a C-terminal FITC tag was synthesized to evaluate preS1 binding to NTCP-expressing cells. HepG2-NTCP cells seeded in 384-wells were pre-treated with compounds for 2 hours prior to the addition of FITC-labeled preS1 peptide. After co-incubation for 30 minutes, unbound FITC-preS1 peptide was washed twice with PBS, and the fluorescence of preS1-FITC bound to cell surface was detected by Envision plate reader. EC50 ranges are as follows: A<0.1 μM; B 0.1-1 μM; C>1 μM. A dash (-) indicates the compound was not tested.

Turning to `CN1[C@H](C2CCCCC2)CN(c2ccccc2)c2cc(Cl)c(C#CC(C)(C)C(=O)O)cc2S1(=O)=O` [Example 1, (R)-4-(7-chloro-3-cyclohexyl-2-methyl-1,1-dioxido-5-phenyl-2,3,4,5-tetrahydrobenzo[f][1,2,5]thiadiazepin-8-yl)-2,2-dimethylbut-3-ynoic acid], the EC50 in the test on HBV (read-out: Cellular EC50 (μM)) is < 0.1 µM; at NTCP it was < 100 nM.

Take `CN1[C@H](C2CCCCC2)CN(c2ccccc2)c2cc(Cl)c(CCC(C)(C)C(=O)O)cc2S1(=O)=O` [Example 2, (R)-4-(7-chloro-3-cyclohexyl-2-methyl-1,1-dioxido-5-phenyl-2,3,4,5-tetrahydrobenzo[f][1,2,5]thiadiazepin-8-yl)-2,2-dimethylbutanoic acid]: the figures for the EC50 with HBV (read-out: Cellular EC50 (μM)) and on NTCP were < 0.1 µM and < 100 nM, respectively. Consider `CN1[C@H](C2CCCCC2)CN(C2CCCCC2)c2ccc(CCC(C)(C)C(=O)O)cc2S1(=O)=O` [Example 3, (R)-4-(3,5-dicyclohexyl-2-methyl-1,1-dioxido-2,3,4,5-tetrahydrobenzo[f][1,2,5]thiadiazepin-8-yl)-2,2-dimethylbutanoic acid], for which the EC50 in the test on HBV (read-out: Cellular EC50 (μM)) was 0.1 to 1 µM; at NTCP it was < 100 nM. On to `CN1[C@H](C2CCCCC2)CN(C2CCCCC2)c2cc(Cl)c(CCC(C)(C)C(=O)O)cc2S1(=O)=O` [Example 4, (R)-4-(7-chloro-3,5-dicyclohexyl-2-methyl-1,1-dioxido-2,3,4,5-tetrahydrobenzo[f][1,2,5]thiadiazepin-8-yl)-2,2-dimethylbutanoic acid], for which the results for the EC50 in the test with HBV (read-out: Cellular EC50 (μM)) and at NTCP were 0.1 to 1 µM and < 100 nM, respectively. Regarding `CN1[C@H](C2CCCCC2)CN(c2ccccc2)c2cc(Cl)c(C#CC3(C(=O)O)CC3)cc2S1(=O)=O` [Example 5], the EC50 in the test on HBV (read-out: Cellular EC50 (μM)) was < 0.1 µM; at NTCP, 100 to 1000 nM.

With `CN1[C@H](C2CCCCC2)CN(c2ccccc2)c2cc(Cl)c(CCC3(C(=O)O)CC3)cc2S1(=O)=O` [Example 6], the EC50 in the test on HBV (read-out: Cellular EC50 (μM)) is < 0.1 µM; on NTCP it was 100 to 1000 nM. With `CN1[C@H](C2CCCCC2)CN(c2ccccc2)c2cc(F)c(CCCC(=O)O)cc2S1(=O)=O` [Example 7], the EC50 in the test with HBV (read-out: Cellular EC50 (μM)) lay within 0.1 to 1 µM; on NTCP, 100 to 1000 nM. Take `CN1[C@H](C2CCCCC2)CN(C2CCCCC2)c2cc(Cl)c(/C=C/C(C)(C)C(=O)O)cc2S1(=O)=O` [Example 10, (R,E)-4-(7-chloro-3,5-dicyclohexyl-2-methyl-1,1-dioxido-2,3,4,5-tetrahydrobenzo[f][1,2,5]thiadiazepin-8-yl)-2,2-dimethylbut-3-enoic acid]: on NTCP, the EC50 was 100 to 1000 nM. With `CC(C)Oc1cccc(COc2cc3c(cc2C#CC2(C(=O)O)CC2)S(=O)(=O)N(C)[C@H](C2CCCCC2)CN3c2ccccc2)c1` [Example 11, (R)-1-((3-cyclohexyl-7-((3-isopropoxybenzyl)oxy)-2-methyl-1,1-dioxido-5-phenyl-2,3,4,5-tetrahydrobenzo[f][1,2,5]thiadiazepin-8-yl)ethynyl)cyclopropane-1-carboxylic acid], the EC50 in the test on HBV (read-out: Cellular EC50 (μM)) was < 0.1 µM; at NTCP, 100 to 1000 nM. `CCCCCOC(=O)N[C@H](CCc1cc2c(cc1Cl)N(c1ccccc1)C[C@@H](C1CCCCC1)N(C)S2(=O)=O)C(=O)O` [Example 17]: the EC50 at NTCP lay in the range of 100 to 1000 nM. In the case of `CCOC(=O)N[C@@H](CCc1cc2c(cc1Cl)N(c1ccccc1)C[C@@H](C1CCCCC1)N(C)S2(=O)=O)C(=O)O` [Example 18], the EC50 on NTCP lay in the range of 100 to 1000 nM. As to `CCOC(=O)N[C@H](CCc1cc2c(cc1Cl)N(c1ccccc1)C[C@@H](C1CCCCC1)N(C)S2(=O)=O)C(=O)O` [Example 19], at NTCP, the EC50 is 100 to 1000 nM. Same read-out and setting: with `CCCCCCCCCOC(=O)N[C@@H](CCc1cc2c(cc1Cl)N(c1ccccc1)C[C@@H](C1CCCCC1)N(C)S2(=O)=O)C(=O)O` [Example 20] the figure was 100 to 1000 nM; with `CCCCCCCCCOC(=O)N[C@H](CCc1cc2c(cc1Cl)N(c1ccccc1)C[C@@H](C1CCCCC1)N(C)S2(=O)=O)C(=O)O` [Example 21], 100 to 1000 nM; with `CN1[C@H](C2CCCCC2)CN(c2ccccc2)c2cc(Cl)c(CC[C@@H](NC(=O)OCc3ccccc3)C(=O)O)cc2S1(=O)=O` [Example 23], 100 to 1000 nM. For `CN1[C@H](C2CCCCC2)CN(c2ccccc2)c2cc(Cl)c(CC[C@@H](NC(=O)N3CCCCC3)C(=O)O)cc2S1(=O)=O` [Example 24, (R)-4-((R)-7-chloro-3-cyclohexyl-2-methyl-1,1-dioxido-5-phenyl-2,3,4,5-tetrahydrobenzo[f][1,2,5]thiadiazepin-8-yl)-2-(piperidine-1-carboxamido)butanoic acid], the EC50 on NTCP was in the range of 100 to 1000 nM.

In the case of `CCN(C)C(=O)N[C@H](CCc1cc2c(cc1Cl)N(c1ccccc1)C[C@@H](C1CCCCC1)N(C)S2(=O)=O)C(=O)O` [Example 25, (R)-4-((R)-7-chloro-3-cyclohexyl-2-methyl-1,1-dioxido-5-phenyl-2,3,4,5-tetrahydrobenzo[f][1,2,5]thiadiazepin-8-yl)-2-(3-ethyl-3-methylureido)butanoic acid], the EC50 at NTCP was 100 to 1000 nM. As to `CCN(C)C(=O)N[C@@H](CCc1cc2c(cc1Cl)N(c1ccccc1)C[C@@H](C1CCCCC1)N(C)S2(=O)=O)C(=O)O` [Example 26], on NTCP, the EC50 lay within 100 to 1000 nM. On the same count and under the same terms, with `CN1[C@H](C2CCCCC2)CN(c2ccccc2)c2cc(Cl)c(CC[C@H](NC(=O)N3CCCCC3)C(=O)O)cc2S1(=O)=O` [Example 27] the figure was 100 to 1000 nM; with `CC(C)CS(=O)(=O)N[C@@H](CCc1cc2c(cc1Cl)N(c1ccccc1)C[C@@H](C1CCCCC1)N(C)S2(=O)=O)C(=O)O` [Example 28, (S)-4-((R)-7-chloro-3-cyclohexyl-2-methyl-1,1-dioxido-5-phenyl-2,3,4,5-tetrahydrobenzo[f][1,2,5]thiadiazepin-8-yl)-2-((2-methylpropyl)sulfonamido)butanoic acid], 100 to 1000 nM; with `CN1[C@H](C2CCCCC2)CN(c2ccccc2)c2cc(Cl)c(CC[C@H](NC(=O)C(=O)N3CCCC3)C(=O)O)cc2S1(=O)=O` [Example 35], 100 to 1000 nM. `CCCCCC(=O)N[C@@H](CCc1cc2c(cc1Cl)N(c1ccccc1)C[C@@H](C1CCCCC1)N(C)S2(=O)=O)C(=O)O` [Example 36, (S)-4-((R)-7-chloro-3-cyclohexyl-2-methyl-1,1-dioxido-5-phenyl-2,3,4,5-tetrahydrobenzo[f][1,2,5]thiadiazepin-8-yl)-2-hexanamidobutanoic acid]: the EC50 on NTCP lay within 100 to 1000 nM. In the case of `CN1[C@H](C2CCCCC2)CN(c2ccccc2)c2cc(Cl)c(OCC(C)(C)C(=O)O)cc2S1(=O)=O` [Example 38, (R)-3-((7-chloro-3-cyclohexyl-2-methyl-1,1-dioxido-5-phenyl-2,3,4,5-tetrahydrobenzo[f][1,2,5]thiadiazepin-8-yl)oxy)-2,2-dimethylpropanoic acid], the EC50 with HBV (HBV-infected HepG2-NTCP cells, HBeAg in supernatants at day 8 post infection, 50% reduction relative to DMSO controls, read-out: Cellular EC50) lay within 0.1 to 1 µM. Consider `CNc1cc2c(cc1C(=O)NC1(C(=O)O)CC1)S(=O)(=O)N(C)[C@H](C1CCCCC1)CN2c1ccccc1` [Example 42], for which, on NTCP, the 50% effective concentration (EC50) is > 1000 nM. Still for that read-out and setting: with `CNc1cc2c(cc1C(=O)NC(C)(C)C(=O)O)S(=O)(=O)N(C)[C@H](C1CCCCC1)CN2c1ccccc1` [Example 43] the figure was 100 to 1000 nM; with `CNc1cc2c(cc1C(=O)N[C@H](C(=O)O)C1CCOCC1)S(=O)(=O)N(C)[C@H](C1CCCCC1)CN2c1ccccc1` [Example 44], > 1000 nM. As for `CNc1cc2c(cc1C(=O)N[C@@H](C(=O)O)c1cccc(Cl)c1)S(=O)(=O)N(C)[C@H](C1CCCCC1)CN2c1ccccc1` [Example 46], at NTCP, the EC50 lay within 100 to 1000 nM.

These data come from patent US20250304542A1, “Fused Heterobicyclic Antiviral Agents” (Enanta Pharmaceuticals, Inc., priority 2024, published 2025).
